Assay results taken from PMC3762901, “Cyclic Peptide Inhibitors of the β-Sliding Clamp in Staphylococcus aureus” (PLoS ONE, 2013).
“And” between values parts separate entries of the source, which are not always exact repeats. Equal entries are not always repeated. Where two headings read alike, the source gives them in different places. Ends that are not written are not given here. Peptide text beside a SMILES is read from it.

Experiments:
[1] = tested on: S. aureus DnaN-DnaN interaction (β-sliding clamp dimerization); test: Bacterial two-hybrid (BTH) β-galactosidase assay of DnaN-DnaN interaction; assay type: cell-based, Staphylococcus aureus; conditions: for Ability to interfere with DnaN dimerization after reduction to 8-mers: cyclic 8-mers with the sequence SXXXXXXG expressed intracellularly, not shown; for Reduction of DnaN-DnaN interaction when produced intracellularly: cyclic peptides expressed in E. coli, Fig. 3
Procedure: The library was screened for peptides able to disrupt DnaN-DnaN interaction of the Staphylococcus replisome by transforming into the R-BTH strain SC01 containing interacting Cya fusion proteins. Cells were plated on plates containing 5-FOA and 1 mM IPTG to induce expression of the cyclic peptides. We readily identified clones where expressed peptides restored cell viability in the presence of 5-FOA (Fig. 3A). To initially assess the activity of the selected peptides we determined their ability to reduce DnaN-DnaN interaction in the original two hybrid system.
Figure 3 Identification of peptides that interfere with DnaN-DnaN interaction. […] After screening of our SICLOPPS library, growth was restored in 7 clones.A. (B) The cyclic peptides identified in (A) were expressed in the original bacterial two-hybrid strain (BTH101) containing T18:DnaN and DnaN:T25 fusion plasmids and the level of β-galactosidase activity was determined as described in Materials and Methods.
Bacterial two-hybrid assay was performed as described previously. Derivatives of plasmids pUT18 and p25N encoding replication proteins were constructed by cloning PCR-amplified DNA fragments in frame with the T25 and T18 fragments of cya. T18 and T25 fusions were transformed into BTH101, and plated on plates containing 40 μg/ml of 5-bromo-4-chloro-indolyl-β-D-galactoside (X-gal) and relevant antibiotics. […] For β-galactosidase assays, cells were grown exponentially at 30°C in LB supplemented with 0.5 mM IPTG, and β-galactosidase activities were measured as described by.

[2] = tested on: S. aureus or S. epidermidis; assay type: cell-based
Source text: In agreement with this none of these peptides were particularly hydrophobic or cationic (Table 4). […] This could be tested by construction of deletion mutants lacking one or more of these permeases. We synthesized and tested linear counterparts of the active peptides III-5, III-6 and III-7. […] Increased antibacterial activity of peptides due to circularization has previously been described.

S. aureus = assay type: cell-based, Staphylococcus aureus
Procedure: (§1) The antibacterial activities of the purified peptides were determined against Staphylococcus epidermidis and S. aureus. […] We can conclude that some but not all of the identified cyclic peptides are able to penetrate the bacterial membrane to find their intracellular target. […] As expected none of the peptides isolated had any activity towards E. coli, whereas they inhibited growth of B. subtilis, another gram positive bacterium (data not shown).

S. epidermidis = assay type: cell-based, Staphylococcus epidermidis; conditions: for Potency against S. epidermidis compared with S. aureus: cyclic peptides, data not shown
Procedure: as §1

S. aureus strain 8325-4 [3] = test: Growth (colony forming units) of S. aureus with or without DnaN overproduction after peptide addition; assay type: cell-based, Staphylococcus aureus; conditions: 40 μg/ml peptide, LB, 37°C, repeated 4 times; for Bacterial growth of uninduced cultures after peptide addition: 8 hours duration, colony forming units; for Bacterial growth of cultures overproducing DnaN after peptide addition: dnaN induced with 10 μM CdCl2 3 hours before (pSC141)
Procedure: To ensure that the antibacterial effects of peptides III-5 and III-6 were the result of direct interaction of these peptides with the β-clamp, we decided to overproduce DnaN in S. aureus cells. The dnaN gene was cloned under control of the cadmium induclible pCAD promoter of plasmid pCN51 [37]. Cells were grown exponentially at 37°C in LB medium and 3 hours prior to peptide addition expression of dnaN was induced by addition of 10 μM CdCl2. At time T = 0 peptides III-5 or III-6 were added to a final concentration of 40 μg/ml which is very close to the MIC value for both of these peptides (Fig. 4).
Figure 4 Overproduction of DnaN in S. aureus relieves the growth inhibition imposed by peptides III-5 and […]. S. aureus strain 8325-4 containing either the vector plasmid pCN51 (black filled squares) or plasmid pSC141 (grey triangles) was grown exponentially at 37°C in LB medium supplemented with 10 μg/ml erythromycin. CdCl2 was added to all cultures to a final concentration of 10 μM to induce overproduction of DnaN from pSC141 three hours prior to peptide addition. At T = 0, 40 μg/ml of peptide III-5 (middle panel) or III-6 (bottom panel) was added to the cultures. The number of colony forming units was determined by plating. The experiment were repeated 4 times with similar results.

[4] = tested on: DNA replication in S. aureus strain 8325-4; test: DNA synthesis, incorporation of 3H-thymidine; assay type: cell-based, Staphylococcus aureus; conditions: 50 μg/ml peptide; LB, 37°C; TCA precipitate, scintillation counting; repeated 3 times
Procedure: (§2) In order to test the direct effects of peptides III-5 and III-6 on DNA replication in S. aureus, strain 8325-4 was grown exponentially at 37°C in LB medium. Incorporation of ^3H-thymidine into the DNA was determined at various times after addition of 50 μg/ml of peptides III-5 or III-6. […] Protein synthesis, determined as incorporation of ^35S-methionine, was unaffected by peptide addition for at least 180 minutes (Fig. S1) which is well after the onset of DNA synthesis inhibition. Therefore the DNA replication inhibition is not a consequence of a more general effect on protein synthesis, and we conclude that peptide III-5 and III-6 inhibits replication by interfering with the dnaN encoded β-clamp.
Figure 5 Peptides III-5 and III-6 Inhibit DNA replication. […] Samples were taken at the indicated time-points and incorporation of ^3H into DNA was measured by liquid scintillation counting of TCA precipitated material. […]
For measuring DNA and protein synthesis, S. aureus strain 8325−4 was grown exponentially at 37°C in LB supplemented with 0.2 ml ^3H-thymidine (20 Ci/mmol,1 mCi/ml; Perkin Elmer Inc.) and uridine (50 μg/ml). […] The incorporation of ^3H into DNA was determined using a 1450 MicroBeta TriLux Microplate and Scintillation and Luminiscence counter (Perkin Elmer Inc.).

[5] = tested on: Protein synthesis in S. aureus strain 8325-4; test: Protein synthesis, incorporation of 35S-methionine; assay type: cell-based, Staphylococcus aureus; conditions: 50 μg/ml peptide; for at least 180 minutes; repeated 3 times
Procedure: as §2
S. aureus strain 8325-4 was grown exponentially in LB supplemented with ^35S-methionine. At T=0 peptide III-5 (grey triangles) or III-6 (green squares) was added to a final concentration of 50 μg/ml. Addition of buffer (red filled circles) served as control. Samples were taken at the indicated time-points and incorporation of ^35S into protein was measured by liquid scintillation counting of TCA precipitated material. The experiment was repeated 3 times with similar result. The result from one experiment is shown.

[6] = target: DnaN (β), β-sliding clamp of S. aureus (S. aureus) (UniProt P0A024)
Sequence of UniProt P0A024 (P0A024 whole entry): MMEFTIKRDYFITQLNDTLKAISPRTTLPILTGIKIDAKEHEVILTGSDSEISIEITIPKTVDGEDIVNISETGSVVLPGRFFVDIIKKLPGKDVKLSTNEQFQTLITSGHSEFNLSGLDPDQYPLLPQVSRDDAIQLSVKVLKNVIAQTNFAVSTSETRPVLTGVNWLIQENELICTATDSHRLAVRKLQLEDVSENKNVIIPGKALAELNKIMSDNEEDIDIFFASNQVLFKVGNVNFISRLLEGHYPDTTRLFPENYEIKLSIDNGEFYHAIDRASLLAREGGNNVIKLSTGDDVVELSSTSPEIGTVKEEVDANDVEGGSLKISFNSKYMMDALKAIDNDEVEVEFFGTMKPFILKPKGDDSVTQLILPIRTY

S. aureus strain 8325-4 [7] = test: Fluorescence microscopy with DAPI staining (cell size, DNA content); assay type: cell-based, Staphylococcus aureus; conditions: 50 μg/ml; LB, 37°C
Source text: The effect of peptides III-5 and III-6 on cell size and DNA content was visualized by fluorescence microscopy. […] A likely explanation is that peptide III-6, through its inhibitory effect on DNA synthesis, also results in an inability for cells to divide. Similar observations have been made for E. coli where failure to complete chromosome replication result in division inhibition and filamentation.
Figure 7 Peptide III-6 affect S. aureus cell size, morphology and DNA content. S. aureus strain 8325−4 was grown exponentially at 37°C in LB medium. […] Cells were stained with DAPI prior to fluorescence microscopy (Materials and Methods).
S. aureus strain 8325-4 or B. subtilis strain 168 was grown exponentially at 37°C in LB. […] The cells were stained with the live/dead stain according to the manufacturer. Phase-contrast and fluorescence images were acquired using a Leica DM5000B microscope with a×100 HCX PL APO NA 1.4 objective and a Leica DFC350FX cooled charge-coupled device camera controlled through FW4000 software (version 1.2.1; Leica Microsystems).

Compound: CC(C)[C@@H]1NC(=O)[C@H](Cc2c[nH]c3ccccc23)NC(=O)[C@H](C(C)C)NC(=O)[C@H](Cc2c[nH]cn2)NC(=O)CNC(=O)[C@H](CCCNC(=N)N)NC(=O)[C@H](CS)NC(=O)[C@H](CC(=O)O)NC1=O [III-7] (cyclo(CRGHVWVD))
- Ability to interfere with DnaN dimerization after reduction to 8-mers [1]: retaining their ability to interfere with DnaN dimerization
- Reduction of DnaN-DnaN interaction when produced intracellularly [1]: efficient in reducing DnaN-DnaN interaction
- MIC values (range given for the three active cyclic peptides) [2]: 20−50 μg/ml

Compound: CC(C)C[C@@H]1NC(=O)[C@H](Cc2ccccc2)NC(=O)[C@H](C(C)C)NC(=O)[C@H](CCCNC(=N)N)NC(=O)[C@H](CS)NC(=O)[C@H](CS)NC(=O)CNC(=O)[C@H](CS)NC1=O [III-5] (cyclo(CRVFLCGC))
- MIC for cyclic peptide (S. aureus; cyclic 8-mer CRXXXXXX, determined for S. aureus, highest concentration tested 100 μg/ml): 50 µg/mL
- MIC for cyclic peptide (molar) (S. aureus; cyclic 8-mer CRXXXXXX, determined for S. aureus, value in brackets): 57 µM
- Potency against S. epidermidis compared with S. aureus (S. epidermidis): somewhat more potent against S. epidermidis
- Ability to interfere with DnaN dimerization after reduction to 8-mers [1]: retaining their ability to interfere with DnaN dimerization
- Reduction of DnaN-DnaN interaction when produced intracellularly [1]: efficient in reducing DnaN-DnaN interaction
- Bacterial growth of uninduced cultures after peptide addition (S. aureus strain 8325-4 [3]): cessation of bacterial growth
- Bacterial growth of cultures overproducing DnaN after peptide addition (S. aureus strain 8325-4 [3]): continued growth
- Accumulation of DNA (3H-thymidine incorporation) [4]: severely reduced accumulation of DNA
- Protein synthesis (35S-methionine incorporation) [5]: unaffected
- MIC values (range given for the three active cyclic peptides) ([2]; cyclic peptides, summary over S. aureus (III-5, III-6) and S. epidermidis (III-7)): 20−50 μg/ml

Compound: CC(C)C[C@H](NC(=O)[C@H](Cc1ccccc1)NC(=O)[C@@H](NC(=O)[C@H](CCCNC(=N)N)NC(=O)[C@@H](N)CS)C(C)C)C(=O)N[C@@H](CS)C(=O)NCC(=O)N[C@@H](CS)C(=O)O [linear III-5] (H-CRVFLCGC-OH)
- MIC for linear peptide (S. aureus): > 560 µg/mL

Compound: cyclo(CRCWLFVL) (cysteine pairing not given here) [IV-N8, cyclic 8-mer CRCWLFVL synthesized via FMOC SPPS]
- MIC for cyclic peptide (S. epidermidis; cyclic 8-mer CRXXXXXX, determined for S. epidermidis, highest concentration tested 100 μg/ml): > 100 µg/mL
- Ability to interfere with DnaN dimerization after reduction to 8-mers [1]: retaining their ability to interfere with DnaN dimerization

Compound: CRSQGLFK [linear III-6]
- MIC for linear peptide (S. aureus): > 560 µg/mL

Compound: CC(C)C[C@H](NC(=O)[C@@H](NC(=O)[C@H](Cc1ccccc1)NC(=O)[C@H](CC(C)C)NC(=O)[C@H](Cc1c[nH]c2ccccc12)NC(=O)[C@H](CS)NC(=O)[C@H](CCCNC(=N)N)NC(=O)[C@@H](N)CS)C(C)C)C(=O)O [linear IV-N8] (H-CRCWLFVL-OH)
- MIC for linear peptide (S. epidermidis): >1124 ^4 (>1.08) μg/ml

Compound: CC(C)C[C@@H]1NC(=O)[C@H](CO)NC(=O)[C@H](CCC(=O)O)NC(=O)[C@H](Cc2ccccc2)NC(=O)[C@H]([C@@H](C)O)NC(=O)[C@H](CO)NC(=O)[C@H](CCCNC(=N)N)NC(=O)[C@H](CS)NC1=O [III-8] (cyclo(CRSTFESL))
- MIC for cyclic peptide (S. aureus): > 100 µg/mL
- Reduction of DnaN-DnaN interaction when produced intracellularly [1]: efficient in reducing DnaN-DnaN interaction

Compound: purified cyclic peptide III-6 (CRSQGLFK)
- MIC for cyclic peptide, determined for S. aureus [6]: 50 μg/ml and 54 μM

Compound: purified cyclic peptide III-5 (CRVFLCGC)
- MIC for cyclic peptide, determined for S. aureus [6]: 50 μg/ml and 57 μM

Compound: CC(C)C[C@@H]1NC(=O)CNC(=O)[C@H](CCC(N)=O)NC(=O)[C@H](CO)NC(=O)[C@H](CCCNC(=N)N)NC(=O)[C@H](CS)NC(=O)[C@H](CCCCN)NC(=O)[C@H](Cc2ccccc2)NC1=O [III-6] (cyclo(CRSQGLFK))
- Potency against S. epidermidis compared with S. aureus (S. epidermidis): somewhat more potent against S. epidermidis
- Ability to interfere with DnaN dimerization after reduction to 8-mers [1]: retaining their ability to interfere with DnaN dimerization
- Reduction of DnaN-DnaN interaction when produced intracellularly [1]: efficient in reducing DnaN-DnaN interaction
- Bacterial growth of uninduced cultures after peptide addition (S. aureus strain 8325-4 [3]): cessation of bacterial growth
- Bacterial growth of cultures overproducing DnaN after peptide addition (S. aureus strain 8325-4 [3]): continued growth
- Accumulation of DNA (3H-thymidine incorporation) [4]: severely reduced accumulation of DNA
- Protein synthesis (35S-methionine incorporation) [5]: unaffected
- Cell size (S. aureus strain 8325-4 [7]): increased cell size
- DNA distribution between cells (DAPI staining) (S. aureus strain 8325-4 [7]): uneven DNA distribution between cells
- MIC values (range given for the three active cyclic peptides) [2]: 20−50 μg/ml

Compound: CRGHVWVD [linear III-7]
- MIC for linear peptide (S. aureus): > 560 µg/mL
